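Protocol summary: plate cells (96-well), add compound at 5 concentrations, incubate 48 h, interpolate endpoints linearly. Here, GI50 denotes the concentration required for 50% inhibition of growth.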 The source made the active and inactive calls. Rule as the data show it: active = GI50 up to about 1.1 µM and inactive = higher.
Tests used:
Assay in all cases: NCI tumour cell line growth inhibition, 48 h
[1] = tested on: SF-295
[2] = tested on: SNB-75
[3] = tested on: SF-268
[4] = tested on: DLD-1
[5] = tested on: LOX IMVI
[6] = tested on: SW-620
[7] = tested on: IGROV-1
[8] = tested on: NCI-H23
[9] = tested on: TK-10
[10] = tested on: NCI-H460
[11] = tested on: KM-20L2
[12] = tested on: A549
[13] = tested on: OVCAR-5
[14] = tested on: HCC 2998
[15] = tested on: OVCAR-8
[16] = tested on: KM12
[17] = tested on: 786-0
[18] = tested on: SNB-78
[19] = tested on: HL-60
[20] = tested on: NCI-H522
[21] = tested on: SN12C
[22] = tested on: UACC-257
[23] = tested on: HOP-62
[24] = tested on: LXFL 529
[25] = tested on: HT-29
[26] = tested on: Malme-3M
[27] = tested on: SR
[28] = tested on: XF498
[29] = tested on: EKVX
[30] = tested on: SF-539
[31] = tested on: DMS-273
[32] = tested on: MOLT-4
[33] = tested on: SK-MEL-28
[34] = tested on: UO-31
[35] = tested on: RXF 393
[36] = tested on: DMS-114
[37] = tested on: M14
[38] = tested on: M19-MEL
[39] = tested on: ACHN
[40] = tested on: OVCAR-3
[41] = tested on: SNB-19
[42] = tested on: SK-MEL-2
[43] = tested on: RPMI-8226
[44] = tested on: SK-MEL-5
[45] = tested on: U-251
[46] = tested on: CCRF-CEM
[47] = tested on: HCT-15
[48] = tested on: K562
[49] = tested on: SK-OV-3
[50] = tested on: NCI-H226
[51] = tested on: COLO 205
[52] = tested on: RXF 631
[53] = tested on: UACC-62
[54] = tested on: OVCAR-4
[55] = tested on: A498
[56] = tested on: HOP-18
[57] = tested on: CAKI-1

In the case of `COc1ccc(OC(C)C(=O)O)c2c(=O)ccccc12` (stereo not given), the GI50 [1] is reported as > 100 µM (inactive), the GI50 [2] is reported as > 100 µM (inactive) and the GI50 [3] is reported as > 100 µM (inactive). For the same molecule, the GI50 [4] was > 100 µM (inactive), the GI50 [5] was > 100 µM (inactive) and the GI50 [6] was > 100 µM (inactive). The GI50 [7] was > 100 µM (inactive), the GI50 [8] was > 100 µM (inactive) and the GI50 [9] was > 100 µM (inactive). The GI50 [10] was > 100 µM (inactive), the GI50 [11] was > 100 µM (inactive) and the GI50 [12] was > 100 µM (inactive). The GI50 [13] was > 100 µM (inactive), the GI50 [14] was > 100 µM (inactive) and the GI50 [15] was > 100 µM (inactive). For the same molecule, the GI50 [16] was > 100 µM (inactive), the GI50 [17] was > 100 µM (inactive) and the GI50 [18] was > 100 µM (inactive). For the same molecule, the GI50 [19] was > 100 µM (inactive), the GI50 [20] was > 100 µM (inactive) and the GI50 [21] was > 100 µM (inactive). For the same molecule, the GI50 [22] was > 100 µM (inactive), the GI50 [23] was > 100 µM (inactive) and the GI50 [24] was > 100 µM (inactive). For the same molecule, the GI50 [25] was > 100 µM (inactive), the GI50 [26] was > 100 µM (inactive) and the GI50 [27] was > 100 µM (inactive). For the same molecule, the GI50 [28] was > 100 µM (inactive), the GI50 [29] was > 100 µM (inactive) and the GI50 [30] was > 100 µM (inactive). For the same molecule, the GI50 [31] was > 100 µM (inactive), the GI50 [32] was > 100 µM (inactive) and the GI50 [33] was > 100 µM (inactive). For the same molecule, the GI50 [34] was > 100 µM (inactive), the GI50 [35] was > 100 µM (inactive) and the GI50 [36] was > 100 µM (inactive). For the same molecule, the GI50 [37] was > 100 µM (inactive), the GI50 [38] was > 100 µM (inactive) and the GI50 [39] was > 100 µM (inactive). For the same molecule, the GI50 [40] was > 100 µM (inactive), the GI50 [41] was > 100 µM (inactive) and the GI50 [42] was > 100 µM (inactive). For the same molecule, the GI50 [43] was > 100 µM (inactive), the GI50 [44] was > 100 µM (inactive) and the GI50 [45] was > 100 µM (inactive). The GI50 [46] was > 100 µM (inactive), the GI50 [47] was over 100 µM and the GI50 [48] was > 100 µM (inactive). For the same molecule, the GI50 [49] was > 100 µM (inactive), the GI50 [50] was > 100 µM (inactive) and the GI50 [51] was > 100 µM (inactive). For the same molecule, the GI50 [52] was > 100 µM (inactive), the GI50 [53] was > 100 µM (inactive) and the GI50 [54] was > 100 µM (inactive). The GI50 [55] was > 100 µM (inactive).
For `O=C1c2ccccc2C(=O)c2c1ccc1c2N=C(c2ccc(Br)cc2)CC(c2cccc3ccccc23)N1` (stereo not given), the GI50 [1] was > 100 µM (inactive), the GI50 [2] was 94.6 µM (inactive) and the GI50 [3] was > 100 µM (inactive). For the same molecule, the GI50 [4] was > 100 µM (inactive), the GI50 [5] was > 100 µM (inactive) and the GI50 [6] was > 100 µM (inactive). For the same molecule, the GI50 [7] was > 100 µM (inactive), the GI50 [8] was > 100 µM (inactive) and the GI50 [9] was > 100 µM (inactive). For the same molecule, the GI50 [10] was > 100 µM (inactive), the GI50 [11] was > 100 µM (inactive) and the GI50 [12] was > 100 µM (inactive). The GI50 [13] was > 100 µM (inactive), the GI50 [14] was > 100 µM (inactive) and the GI50 [15] was > 100 µM (inactive). The GI50 [16] was > 100 µM (inactive), the GI50 [17] was > 100 µM (inactive) and the GI50 [56] was > 100 µM (inactive). The GI50 [57] was > 100 µM (inactive), the GI50 [18] was > 100 µM (inactive) and the GI50 [19] was > 100 µM (inactive). For the same molecule, the GI50 [20] was > 100 µM (inactive), the GI50 [21] was > 100 µM (inactive) and the GI50 [22] was > 100 µM (inactive). The GI50 [23] was > 100 µM (inactive), the GI50 [24] was > 100 µM (inactive) and the GI50 [25] was > 100 µM (inactive). For the same molecule, the GI50 [26] was > 100 µM (inactive), the GI50 [27] was 57.7 µM (inactive) and the GI50 [28] was > 100 µM (inactive). The GI50 [29] was > 100 µM (inactive), the GI50 [30] was > 100 µM (inactive) and the GI50 [31] was > 100 µM (inactive). For the same molecule, the GI50 [32] was > 10 µM (inactive), the GI50 [33] was > 100 µM (inactive) and the GI50 [34] was > 100 µM (inactive). The GI50 [35] was > 100 µM (inactive), the GI50 [36] was > 100 µM (inactive) and the GI50 [37] was > 100 µM (inactive). For the same molecule, the GI50 [39] was > 100 µM (inactive), the GI50 [40] was > 100 µM (inactive) and the GI50 [41] was > 100 µM (inactive). For the same molecule, the GI50 [42] was > 100 µM (inactive), the GI50 [43] was 83.6 µM (inactive) and the GI50 [44] was > 100 µM (inactive). The GI50 [45] was > 100 µM (inactive), the GI50 [46] was > 100 µM (inactive) and the GI50 [47] was over 100 µM. For the same molecule, the GI50 [48] was > 100 µM (inactive), the GI50 [49] was > 100 µM (inactive) and the GI50 [50] was > 100 µM (inactive). For the same molecule, the GI50 [51] was > 100 µM (inactive), the GI50 [52] was > 100 µM (inactive) and the GI50 [53] was > 100 µM (inactive). For the same molecule, the GI50 [54] was > 100 µM (inactive).
